What was measured:
[1] = Particle size and polydispersity index of nanoparticle compositions (Zetasizer Nano ZS); assay type: physicochemical
Procedure, shortened: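 Zetasizer Nano ZS; samples in 1×PBS; read-out: particle size plus polydispersity index.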

[2] = Encapsulation efficiency of RNA (QUANT-IT RIBOGREEN RNA assay); assay type: physicochemical
Procedure, shortened: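 RiboGreen fluorescence (ex ~480, em ~520 nm) compared between intact samples and Triton X-100-lysed samples after 15 min at 37 °C in TE buffer, pH 7.5. Percent free RNA is the blank-corrected intact/disrupted ratio.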

[3] = Apparent (surface) pKa of the LNP formulation (TNS assay); assay type: physicochemical; conditions: for pKa: Table 1A
Procedure, shortened: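 Fluorescence of TNS probe added to LNP samples (mRNA 0.04 mg/mL) was read across 21 buffers of pH about 3-12, triplicate per pH. The inflection point of the sigmoidal fluorescence-vs-pH curve, […], gives apparent pKa; method validated in 1× PBS and Tris/sucrose buffer.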

[4] = system: luciferase (Luc) mRNA; experiment: Luc expression, whole body bioluminescence after intravenous administration to mice; assay type: in vivo; conditions: Table 3E; intravenous
Procedure, shortened: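 Bioluminescence, read as region-of-interest total flux at 3, 6 and 24 h, followed a single 0.5 mg/kg intravenous dose of Luc mRNA-loaded nanoparticles in mice (n=6). Luciferin substrate (200 μL, 15 mg/mL in PBS) was injected intraperitoneally into CD-1 mice 15 minutes ahead of each imaging point.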

[5] = Lipid clearance: lipid level in mouse liver tissue (LC-MS/MS); assay type: in vivo; conditions: Table 3E, mouse liver
Description: Quantification of Lipid by LC-MS/MS: Liver samples were homogenized following addition of 19 eq. (w/v) of water (DF=20). Protein was precipitated and analyzed against calibration standards prepared in matching blank. Chromatographic separation and quantification was accomplished with a LC-MS/MS System. Samples were injected and separated via HPLC A triple-quadrupole MS/MS system operated in positive ion mode was used for signal detection.

[6] = system: hEPO mRNA; experiment: hEPO expression after intravenous administration to rats; assay type: in vivo, rat; conditions: Table 19B; for Lipid/MC3 ([hEPO] ratio) / Lipid/MC3 AUC: relative to MC3; for [hEPO]: species, dose and time not given
Description: The expression of hEPO and cytokine induction in rats intravenously administered a nanoparticle composition at a dose of 2.0 mpk was measured at 6 h.
(§1) The expression of hEPO in rats intravenously administered a nanoparticle composition at a dose of 0.2 mpk or 2.0 mpk was measured at 6 hours. Table 16 summarize the ratio of hEPO expression levels using various nanoparticle compositions as compared to the hEPO expression level using MC3 formulation and the lipid levels in the liver measured 48 hours after administration, as described above. Tables 17 and 18 summarize the lipid levels in the liver and spleen measured 48 hours after administration of Compounds 28, 33, 53, and 54. Liver and spleen levels represent the average values calculated for 3 rats in each group. As is shown in Tables 17 and 18, less than 10% of Compounds 28, 33, 53, and 54 remained in the liver after 48 hours, while greater than 60% of MC3 remained.
The expression of hEPO induced by intravenous administration to rats of nanoparticle compositions at various doses was measured at 2, 4, 6, 8, 24, and 48 hour time points. FIGS. 3-6 respectively summarize the hEPO expression measured upon intravenous administration of formulations including Compounds 26, 18, 25, and MC3 to rat at various doses. The lipid levels of Compound 26 in the liver after 48 hours were about 19%.
(§2) 005781 The expression of hEPO and lipid levels in the liver and spleen in rats intravenously administered a nanoparticle composition at a dose of 0.2 mpk was measured at various time points. Compounds 18 and 25 were selected for comparison with MC3. Lipids were formulated according to the standard MC3 formulation described above. Rats were administered intravenously a single 0.2 mpk dose and expression monitored at 0.25, 0.5, 1, 2, 4, 8, 24, and 48 hours after administration.
(§3) Blood collection and analysis for hEPO. Blood was collected from mice or rats via the tail vein and hEPO concentrations were determined using a hEPO ELISA assay.

[7] = Residual lipid levels in rat liver and spleen (UPLC-MS); assay type: in vivo; conditions: Table 19B, liver, 24 h
Description: At 48 h liver tissue was harvested for lipid quantification. To pre-weighed tissues, Milli-Q water was added (900 μL water per 100 mg tissue). Tissues were homogenized using an Omni probe homogenizer until uniform. 50 μL of samples and matrix calibration standards were aliquoted into a 96-well plate. 50 μL of blank matrix for matrix blanks and control blanks were aliquoted. 400 μL is spiking solution were manually added to all samples except matrix blanks. 400 μL of 50:50 ACN:IPA were manually added to matrix blanks. The plate was covered and the samples vortexed and centrifuged for 5 minutes at >3000 rpm. 200 μL of the samples were transferred into a clean 96-well plate for analysis. Samples were analyzed on a Waters Acquity UPLC using a Higgins Analytical Clipeus C8 column ([…], 30×2.1 mm) and a gradient of either 70-95% or 60-95% (Mobile Phase A: 5 mM ammonium formate in 50:50:1 H2O:MeOH:formic acid; Mobile Phase B: 5 mM ammonium formate in 100:1 MeOH:formic acid) over 1.3 min at 1.2 mL/min (column temperature 55° C.). Detection was based on electrospray ionization (ESI) in positive mode using a Sciex API5500 Mass Spectrometer.
as §1, §2

[8] = system: luciferase (Luc) mRNA; experiment: Luc expression (total flux) after intramuscular administration; assay type: in vivo, mice; conditions: Table 3B; i.m., 0.01 mpk, 6 h
Procedure, shortened: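 Total-flux luciferase signal in mice after one intramuscular injection. Nanoparticle formulations contained modified Luc mRNA, either alone or co-dosed with H10 mRNA (e.g., 0.0005 or 0.005 mpk of each), giving 0.001 or 0.01 mpk.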

[9] = system: hEPO mRNA; experiment: hEPO expression after intramuscular administration to mice; assay type: in vivo; conditions: Table 3I, hEPO
Description: The expression of hEPO and cytokine induction in mice intravenously administered a nanoparticle composition at a dose of 0.5 mpk were measured at 3, 6, and 24 hours. […] The expression of hEPO in mice intramuscularly administered a nanoparticle composition from Table 1B at a dose of 0.01 mpk were measured at 3, 6, and 24 hours.
as §3

[10] = Table 1A, lipid:DSPC:cholesterol:PEG-DMG 50:10:38.5:1.5 mol %
[11] = Table 1B, formulated with hEPO mRNA

Row | Compound | PDI ([1]; Table 1A) | Size (nm) [1, 10] [nm] | PDI [1, 11] | Size (nm) [1, 11] [nm] | EE (%) ([2]; Table 1A) | EE (%) [2, 11] [%] | pKa [3] | 6 h BLI Lipid/MC3 [4] | % Remaining dose at 6 h ([5]; 6 h) [%] | % Remaining dose at 24 h ([5]; 24 h) [%] | AUC (hEPO) [6] [pg·h/mL] | Lipid/MC3 ([hEPO] ratio) [6] | Lipid/MC3 AUC [6] | [hEPO] [6] [pg/mL] | % dose remaining, liver, 24 h [7] [%] | App. pKa ([3]; Table 3F) | i.m. Lipid/MC3 0.01 mpk, Luc, 6 h [8] | Lipid/MC3 6 h timepoint [9] | Lipid/MC3 AUC [9]
1 | CCCCCCCCC(CCCCCCCC)OC(=O)CCCCCCCN(CCO)CCCCCCCC(=O)OCC(C)CCCCCCC (stereo not drawn) [Compound 184, Heptadecan-9-yl 8-((2-hydroxyethyl)(8-((2-methylnonyl)oxy)-8-oxooctyl)amino)octanoate] | 0.13 | 77.2 | 0.16 | 85.8 | 94.2 | 96.5 | 6.47 | 7.46 | 0.282 | 0 | 1.41e+08 | 7.13 | 7.64 | 1.05e+07 | 0.04 | – | – | – | –
2 | CCCCCCCCCOC(=O)CCCCCCCN(CCCCCCCC(=O)OC(CCCCCCCC)CCCCCCCC)CCCC(N)=O [Compound 243, Heptadecan-9-yl 8-((4-amino-4-oxobutyl)(8-(nonyloxy)-8-oxooctyl)amino)octanoate] | – | – | 0.35 | 90.6 | – | 99.4 | – | – | – | – | 445000 | 0.02755 | 0.02 | 40600 | 0.05 | – | – | – | –
3 | CCCCCCCCC(CCCCCCCC)OC(=O)CCCCCCCN(CCO)CCCCCC(=O)OC(C)CCCCCCCCOC(C)=O (stereo not drawn) [Compound 235, Heptadecan-9-yl 8-((6-((10-acetoxydecan-2-yl)oxy)-6-oxohexyl)(2-hydroxyethyl)amino)octanoate] | – | – | 0.24 | 228 | – | 40.9 | – | – | – | – | 1.71e+07 | 0.8601 | 0.93 | 1.27e+06 | 0.06 | – | – | – | –
4 | CCCCCCCCCOC(=O)CCCCCCCN(CCCCCCCC(=O)OC(CCCCCCCC)CCCCCCCC)CCCN/C(=C/[N+](=O)[O-])NC [Compound 170, Heptadecan-9-yl (E)-8-((3-((1-(methylamino)-2-nitrovinyl)amino)propyl)(8-(nonyloxy)-8-oxooctyl)amino)octanoate] | 0.18 | 96.0 | – | – | 96.7 | – | 6.31 | – | – | – | – | – | – | – | – | 6.60 | 5.3 | 5.9 | 5.7
5 | CCCCCCCCCOC(=O)CCCCCCCN(CCCCCCCC(=O)OC(CCCCCCCC)CCCCCCCC)CCCNc1c(NC)c(=O)c1=O [Compound 182, Heptadecan-9-yl 8-((3-((2-(methylamino)-3,4-dioxocyclobut-1-en-1-yl)amino)propyl)(8-(nonyloxy)-8-oxooctyl)amino)octanoate] | 0.14 | 84.4 | – | – | 99.0 | – | 6.48 | – | – | – | – | – | – | – | – | – | – | 1.6 | 1.2
6 | CCCCCCCCCOC(=O)CCCCCCCN(CCO)CCCCCC(=O)OC1CCC(CCCCC)CC1 (stereo not drawn) [Compound 232, Nonyl 8-((2-hydroxyethyl)(6-oxo-6-((4-pentylcyclohexyl)oxy)hexyl)amino)octanoate] | – | – | 0.23 | 150.3 | – | 76.3 | – | – | – | – | 73800 | – | <0.01 | 7024.114 | 0.00 | – | – | – | –
7 | CCCCCCCCC(CCCCCCCC)OC(=O)CCCCCCCN(CCO)CCCCCCCCCC(=O)OCCCCCCC [Compound 189, Heptyl 10-((8-(heptadecan-9-yloxy)-8-oxooctyl)(2-hydroxyethyl)amino)decanoate] | – | – | 0.16 | 95.5 | – | 93.9 | – | – | – | – | 4.35e+07 | – | 2.35 | 3.01e+06 | 0.00 | – | – | – | –
8 | CCCCCCCCCOC(=O)CCCCCCCN(CCO)CCCCCCC(C)OC(=O)C(CCCCCCCC)CCCCCCCC (stereo not drawn) [Compound 234, 8-((2-Hydroxyethyl)(8-(nonyloxy)-8-oxooctyl)amino)octan-2-yl 2-octyldecanoate] | – | – | 0.22 | 96.3 | – | 94.7 | – | – | – | – | 5.17e+07 | – | – | 3.56e+06 | 0.03 | – | – | – | –
9 | CCCCCCCCCOC(=O)CCCCCCCN(CCCCCCCC(=O)OC(CCCCCCCC)CCCCCCCC)CCCNC(=O)C(C)C [Compound 194, Heptadecan-9-yl 8-((3-isobutyramidopropyl)(8-(nonyloxy)-8-oxooctyl)amino)octanoate] | – | – | – | – | – | – | – | – | – | – | – | – | – | – | – | – | – | 5.5 | 6.2
10 | CCCCCCCCCOC(=O)CCCCCCCNCCCCCCCC(=O)OC(CCCCCCCC)CCCCCCCC [Compound 237] | – | – | 0.15 | 82.5 | – | 99.3 | – | – | – | – | 4.09e+07 | – | – | 3.47e+06 | 0.14 | – | – | – | –
11 | CCCCCCCCCOC(=O)CCCCCCCN(CCCCCCCC(=O)OC(CCCCCCCC)CCCCCCCC)CCNC(C)=O [Compound 244, Heptadecan-9-yl 8-((2-acetamidoethyl)(8-(nonyloxy)-8-oxooctyl)amino)octanoate] | – | – | – | – | – | – | – | – | – | – | – | – | – | – | – | – | – | 0.4 | 0.4

Source: patent US12263248B2, “Compounds and compositions for intracellular delivery of therapeutic agents” (ModernaTX, Inc., priority 2018, dated 2025)
